Entries after “also recorded” stand apart in the source; their conditions may differ.
How the values were obtained:
Assay type in all cases: cell-based
Ins1 cells = assay: Insulin release in INS1 cells; details: 25 mM glucose in the media
Method: Ins1 cells (FIG. 21) or primary rat islet cells (FIG. 22) were seeded in 24 well-plates [˜10^6 cells/well]. At confluence, cells were incubated with Low Serum [2.5%] and Low Glucose [2.5 mM] media for 12 hours. Next, cells were incubated with KRB buffer for 1 h and stimulated with glucose in the presence of 5-PAHSA (FIG. 21) or 9-PAHSA (FIG. 21) for 45 min in KRB. At the end of the stimulation, 100 μL of media was collected and 10 μL was used to quantitate the amount of insulin released by ELISA. Treatment Conditions for FIGS. 21 and 22 were: • 5-PAHSA or 9-PAHSA [Stock]=20.0 mM [10.76 mg/mL Methanol] • A] 1 uM=0.3 uL/6 mL [Amount of methanol/mL=0.05 uL] • B] 5 uM=1.5 uL/6 mL [Amount of methanol/mL=0.25 uL] • C] 10 uM=3.0 uL/6 mL [Amount of methanol/mL=0.50 uL] • D] 20 uM=6.0 uL/6 mL [Amount of methanol/mL=1.00 uL]
INS-1 cells were seeded in 24 well-plates [˜10^6 cells/well] and at 80% confluence, were cultured overnight in RPMI 1640 medium containing 2.5 mM glucose and 2.5% fetal bovine serum supplemented with 100 IU/ml penicillin and […], 1 mM sodium pyruvate, 2-mercaptoethanol (50 μM) and 10 mM HEPES (pH 7.4). […] At the end of the stimulation supernatant was collected and insulin released into the medium was quantified by ELISA as per manufacturer's protocol. […]

STC-1 cells = assay: Calcium flux (FURA2) in STC-1 cells; details: 100 uM, no extracellular Ca2+
Method: For the experiments summarized in FIG. 39 the method is: Cells grown on collagen coated glass slides were preloaded with the calcium indicator, FURA2, for 60 minutes. Buffer containing either FAHFAs or vehicle was incubated with cells for a period of 3 minutes followed by washout with buffer alone. FURA2 fluorescence, an indicator of Calcium mobilization, was monitored continuously before and during the addition of compounds and throughout the washout period. Results were analyzed with metamorph software. Calcium Flux in STC-1 (intestinal enteroendocrine) cells in the absence of extracellular calcium (calcium free buffer). Ligands were injected after 3 minutes and washed out after an additional 3 minutes. The data presented is the average fold change in Fura2 fluorescence for 10 individual STC-1 cells in the same field.
DMSO control had no effect. Top panel is linoleic acid, a positive control. Middle panel 9-PAHSA (100 uM). Bottom panel 5-PAHSA (100 μM). These experiments were done in the absence of extracellular calcium.

GPR120 = biological target: T1, GPR120 (Homo sapiens, UniProt Q5NUL3); assay: PathHunter beta-Arrestin GPCR assay
T1 construct: beta-galactosidase enzyme fragment (ProLink)
T1 sequence (Q5NUL3 1-377 isoform Q5NUL3-1): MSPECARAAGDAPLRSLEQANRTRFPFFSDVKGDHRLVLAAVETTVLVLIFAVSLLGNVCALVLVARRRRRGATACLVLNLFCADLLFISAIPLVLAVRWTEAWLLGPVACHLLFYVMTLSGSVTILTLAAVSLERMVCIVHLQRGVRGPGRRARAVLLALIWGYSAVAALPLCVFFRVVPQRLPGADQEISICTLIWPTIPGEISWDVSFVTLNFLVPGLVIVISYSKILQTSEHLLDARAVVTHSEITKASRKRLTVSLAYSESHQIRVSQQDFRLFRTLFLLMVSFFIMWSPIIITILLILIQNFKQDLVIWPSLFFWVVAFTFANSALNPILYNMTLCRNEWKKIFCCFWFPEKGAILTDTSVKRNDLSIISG
Source text: FIGS. 57A and 57B are graphs showing GPR120 activation by 9-PAHSA and GPR120 knockdown in 3T3-L1 adipocytes. Specifically, FIG. 57A depicts a GPR120 activity assay using the PathHunter® eXpress GPR120L β-Arrestin GPCR Assay (DiscoverX). n=3 wells per condition. FIG. 57B is a bar graph showing validation of GPR120 knockdown in differentiated 3T3-L1 adipocytes. 3T3-L1 adipocytes (Day 8 post differentiation) were transfected with non-targeting (control) siRNA or three individual GPR120 targeting siRNA's individually or in combination. 48 h post-transfection GPR120 mRNA levels were measured by qPCR and normalized to TBP mRNA levels. n=3 wells per condition.
For the experiments summarized in FIGS. 43-45, the fragment based GPCR assay from DiscoveRx (PATHHUNTER® β-Arrestin assay) was used to as per manufacturer's instructions to determine activation of specific GPCRs as indicated in FIGS. 43-45.

3T3-L1 adipocytes = assay: Glucose transport in 3T3-L1 adipocytes
Method: FIGS. 54A-D show glucose uptake regulation by PAHSAs and Glut4 translocation via GPR120. FIG. 54A is a bar graph showing insulin-stimulated glucose transport in 3T3-L1 adipocytes treated 9-PAHSA (20 μM) or vehicle (DMSO) control for 6 days. n=6 per group, *p<0.05 compared to vehicle by t-test. FIG. 54B is a bar graph showing insulin (10 nM)-stimulated glucose transport in 3T3-L1 adipocytes transfected with control siRNA or GPR120 siRNA and treated 5-PAHSA (10 μM), 9-PAHSA (10 μM) or vehicle (DMSO) control for 2 days. n=3 per group, *p<0.05 compared to DMSO+control siRNA or GPR120 siRNA alone, $p<0.05 compared to control siRNA or GPR120 siRNA+insulin and GPR120 siRNA+insulin+PAHSA by t-test. FIG. 54C is a panel showing Glut4 plasma membrane translocation in 3T3-L1 adipocytes transfected with control siRNA or GPR120 siRNA and treated with 9-PAHSA in the presence or absence of insulin. 6 separate experiments were carried out without RNAi and 3 experiments with RNAi; each experiment had greater than 50 cells per experimental condition. FIG. 54D is a bar graph showing quantification of Glut4 translocation in panel C. *p<0.05 compared to control siRNA+insulin and GPR120 siRNA+insulin+9-PAHSA by t-test. All data are presented as mean±s.e.m. See also FIG. 57.
For all cell culture experiments, FAHFAs were solubilized in DMSO at a concentration of 20 mM and further diluted in assay buffer or cell culture media to the working concentrations indicated for each assay. In all instances an equivalent volume of vehicle (DMSO) was added to control treatment groups.

| Compound | insulin secretion (Ins1 cells) | Ca2+ flux from intracellular stores (STC-1 cells) | GPR120 activation (GPR120) | insulin-stimulated glucose transport (3T3-L1 adipocytes) | glucose transport (3T3-L1 adipocytes; basal state) |
| --- | --- | --- | --- | --- | --- |
| CCCCCCCCCCCCCCCC(=O)OC(CCCCCCCCCCCCC)CCCC(=O)O (centres unmarked) [5-PAHSA] | potentiate insulin secretion | induce Ca2+ flux from intracellular stores | dose-dependently activated GPR120; also recorded: activate GPR120 | enhanced insulin-induced glucose transport | – |
| CCCCCCCCCCCCCCCC(=O)OC(CCCCCCCCC)CCCCCCCC(=O)O (centres unmarked) [9-PAHSA, palmitoyl-9-hydroxystearic acid] | potentiate insulin secretion | induce Ca2+ flux from intracellular stores | dose-dependently activated GPR120; also recorded: is a ligand for the GPCR, GPR120; also recorded: activate GPR120 | – | modestly increased glucose transport |
